Test results: ChEMBL document CHEMBL5608163, “Structure modification of anoplin for fighting resistant bacteria” (Eur J Med Chem, 2024)
In brackets after ≈: the same amount, converted by molar mass. Peptide text beside a SMILES is read from it. * marks the point of attachment. Undecanoyl = CCCCCCCCCCC(=O)*

Key:
[1] = Hemolytic activity in human RBC; type: toxicity, cell-based, Erythrocyte; settings: red blood cells
Staphylococcus aureus [2] = assay: Antibacterial activity against Staphylococcus aureus ATCC 29213 assessed as bacterial growth inhibition measured after 18 hrs by CLSI protocol based two-fold serial microdilution method; type: functional
Escherichia coli [3] = assay: Antibacterial activity against Escherichia coli ATCC 25922 assessed as reduction in bacterial growth; type: functional
Staphylococcus aureus [4] = assay: Antibacterial activity against methicillin resistant Staphylococcus aureus ATCC 33591 assessed as inhibition of bacterial growth incubated for 16 to 20 hrs by broth micro-dilution method; type: functional; settings: time 16-20 hrs
Enterococcus faecium = assay: Antibacterial activity against Vancomycin resistant Enterococcus faecium ATCC 700221 assessed as inhibition of bacterial growth incubated for 16 to 20 hrs by broth micro-dilution method; type: functional; settings: time 16-20 hrs
Bacillus subtilis = assay: Antibacterial activity against Bacillus subtilis assessed as bacterial growth inhibition; type: functional
Pseudomonas aeruginosa = assay: Antibacterial activity against Pseudomonas aeruginosa PAO1 assessed as bacterial growth inhibition; type: functional
[5] = test system: Mycolicibacterium smegmatis; assay: Antibacterial activity against Mycobacterium smegmatis mc2 155 assessed as bacterial growth inhibition; type: functional
Escherichia coli [6] = assay: Antibacterial activity against Escherichia coli DH5a assessed as bacterial growth inhibition; type: functional
Zymomonas mobilis = assay: Antibacterial activity against Zymomonas mobilis ATCC 10988 assessed as bacterial growth inhibition; type: functional
[7] = Hemolytic activity in human erythrocytes measured after 1 hrs by microplate reader analysis; type: toxicity, cell-based, Erythrocyte

Structure (SMILES) | HC50 [1] [µM] | MIC (Staphylococcus aureus [2]) [µM] | MIC (Escherichia coli [3]) [µM] | MIC (Bacillus subtilis) [µM] | MIC (Pseudomonas aeruginosa) [µM] | MIC [5] [µM] | MIC (Escherichia coli [6]) [µM] | MIC (Zymomonas mobilis) [µM] | HC50 at 1 h [7] [µM] | also measured
CC[C@H](C)[C@H](NC(=O)[C@@H](NC(=O)[C@H](CCCCN)NC(=O)[C@H](CC(C)C)NC(=O)[C@H](CC(C)C)NC(=O)CN)C(C)C)C(=O)N[C@@H](CCCCN)C(=O)N[C@H](C(=O)N[C@@H](CC(C)C)C(=O)N[C@@H](CC(C)C)C(N)=O)[C@@H](C)O (H-GLLKVIKTLL-NH2) | 54.7 | 2.7 (≈ 2.96 µg/mL) | 2.7 (≈ 2.96 µg/mL) | – | – | – | – | – | – | –
CC[C@H](C)[C@H](NC(=O)[C@H](CCCCN)NC(=O)[C@H](CC(C)C)NC(=O)[C@H](CC(C)C)NC(=O)CN)C(=O)N[C@H](C(=O)N[C@@H](CCCCN)C(=O)N[C@H](C(=O)N[C@@H](CC(C)C)C(=O)N[C@@H](CC(C)C)C(N)=O)[C@@H](C)O)[C@@H](C)CC (H-GLLKIIKTLL-NH2) | 26.1 | 1.8 (≈ 2 µg/mL) | 1.8 (≈ 2 µg/mL) | – | – | – | – | – | – | –
CC[C@H](C)[C@H](NC(=O)[C@H](Cc1ccccc1)NC(=O)[C@H](CCCCN)NC(=O)[C@H](CC(C)C)NC(=O)[C@H](CC(C)C)NC(=O)CN)C(=O)N[C@@H](CCCCN)C(=O)N[C@H](C(=O)N[C@@H](CC(C)C)C(=O)N[C@@H](CC(C)C)C(N)=O)[C@@H](C)O (H-GLLKFIKTLL-NH2) | 67.3 | 1.8 (≈ 2.06 µg/mL) | 1.8 (≈ 2.06 µg/mL) | – | – | – | – | – | – | –
CC[C@@H](C)[C@@H](NC(=O)[C@H](CCCNC(=N)N)NC(=O)[C@H](CCCCN)NC(=O)[C@H](CC(C)C)NC(=O)[C@H](CC1CCCCC1)NC(=O)CN)C(=O)N[C@@H](CCCCN)C(=O)N[C@H](C(=O)N[C@@H](CC(C)C)C(=O)N[C@@H](CC1CCCCC1)C(N)=O)[C@@H](C)O | – | – | – | – | – | – | – | – | – | MIC (Staphylococcus aureus [4]): 56.8 µM (≈ 70.1 µg/mL); MIC (Enterococcus faecium): 56.8 µM (≈ 70.1 µg/mL)
CC[C@H](C)[C@H](NC(=O)[C@H](CC(C)C)NC(=O)[C@H](CCCCN)NC(=O)[C@H](CC(C)C)NC(=O)[C@H](CC(C)C)NC(=O)CN)C(=O)N[C@@H](CCCCN)C(=O)N[C@H](C(=O)N[C@@H](CC(C)C)C(=O)N[C@@H](CC(C)C)C(N)=O)[C@@H](C)O (H-GLLKLIKTLL-NH2) | 11.7 | 1.8 (≈ 2 µg/mL) | 1.8 (≈ 2 µg/mL) | – | – | – | – | – | – | –
CCCCCCCCCCC(=O)NCC(=O)N[C@@H](CC(C)C)C(=O)N[C@@H](CC(C)C)C(=O)N[C@@H](CCCCN)C(=O)N[C@H](C(=O)N[C@H](C(=O)N[C@@H](CCCCN)C(=O)N[C@@H](CCCCN)C(=O)N[C@@H](CC(C)C)C(=O)N[C@@H](CC(C)C)C(N)=O)[C@@H](C)CC)[C@@H](C)CC (Undecanoyl-GLLKIIKKLL-NH2) | – | – | – | 26 (≈ 34 µg/mL) | 34.7 (≈ 45.3 µg/mL) | 6.08 (≈ 7.94 µg/mL) | > 174 | 8.68 (≈ 11.3 µg/mL) | 38.7 | –
CC[C@H](C)[C@H](NC(=O)[C@H](CC(N)=O)NC(=O)[C@H](CCCCN)NC(=O)[C@H](CC(C)C)NC(=O)[C@H](CC(C)C)NC(=O)CN)C(=O)N[C@@H](CCCCN)C(=O)N[C@H](C(=O)N[C@@H](CC(C)C)C(=O)N[C@@H](CC(C)C)C(N)=O)[C@@H](C)O (H-GLLKNIKTLL-NH2) | – | 1.7 (≈ 1.89 µg/mL) | 1.7 (≈ 1.89 µg/mL) | – | – | – | – | – | – | –
CCCCCCCCCCC(=O)NCC(=O)N[C@@H](CC(C)C)C(=O)N[C@@H](CCCCN)C(=O)N[C@@H](CCCCN)C(=O)N[C@H](C(=O)N[C@H](C(=O)N[C@@H](CCCCN)C(=O)N[C@@H](CCCCN)C(=O)N[C@@H](CC(C)C)C(=O)N[C@@H](CC(C)C)C(N)=O)[C@@H](C)CC)[C@@H](C)CC (Undecanoyl-GLKKIIKKLL-NH2) | – | – | – | 5.83 (≈ 7.7 µg/mL) | 16.7 (≈ 22 µg/mL) | 0.42 (≈ 0.555 µg/mL) | 25 (≈ 33 µg/mL) | 12.5 (≈ 16.5 µg/mL) | 62.9 | –
CCCCCCCCCCC(=O)NCC(=O)N[C@@H](CC(C)C)C(=O)N[C@@H](CC(C)C)C(=O)N[C@@H](CCCCN)C(=O)N[C@H](C(=O)N[C@H](C(=O)N[C@@H](CCCCN)C(=O)N[C@@H](CCCNC(=N)N)C(=O)N[C@@H](CC(C)C)C(=O)N[C@@H](CC(C)C)C(N)=O)[C@@H](C)CC)[C@@H](C)CC (Undecanoyl-GLLKIIKRLL-NH2) | – | – | – | 167 (≈ 222 µg/mL) | 33.3 (≈ 44.4 µg/mL) | 33.3 (≈ 44.4 µg/mL) | > 167 | 12.5 (≈ 16.7 µg/mL) | 56.8 | –
